Experimental data taken from PubChem BioAssay (NCI).
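Cells were grown in 96-well plates and exposed to each compound for 48 hours at five concentrations; endpoints were interpolated linearly between bracketing concentrations, or set to the highest concentration if not reached. Here, GI50 denotes the concentration required for 50% inhibition of growth. TGI is the concentration that stops growth completely.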

Tests used:
Assay in all cases: NCI-60 cell line screen, 48 h
OVCAR-4 ovarian = system: OVCAR-4 ovarian
UO-31 renal = system: UO-31 renal
SF-295 CNS = system: SF-295 CNS
UACC-257 melanoma = system: UACC-257 melanoma
MALME-3M melanoma = system: MALME-3M melanoma
SNB-19 CNS = system: SNB-19 CNS
SF-268 CNS = system: SF-268 CNS
NCI-H522 lung = system: NCI-H522 lung
HCT-15 colon = system: HCT-15 colon
MCF7 breast = system: MCF7 breast
A498 renal = system: A498 renal
ACHN renal = system: ACHN renal
SK-OV-3 ovarian = system: SK-OV-3 ovarian
SNB-75 CNS = system: SNB-75 CNS
NCI/ADR-RES ovarian = system: NCI/ADR-RES ovarian
NCI-H23 lung = system: NCI-H23 lung
LOX IMVI melanoma = system: LOX IMVI melanoma
BT-549 breast = system: BT-549 breast
MOLT-4 leukemia = system: MOLT-4 leukemia
RPMI-8226 leukemia = system: RPMI-8226 leukemia
SW-620 colon = system: SW-620 colon
NCI-H460 lung = system: NCI-H460 lung
RXF 393 renal = system: RXF 393 renal
HL-60(TB) leukemia = system: HL-60(TB) leukemia
A549 NSCLC = system: A549 NSCLC
PC-3 prostate = system: PC-3 prostate
NCI-H226 lung = system: NCI-H226 lung
HCT-116 colon = system: HCT-116 colon
786-0 renal = system: 786-0 renal
UACC-62 melanoma = system: UACC-62 melanoma
HT29 colon = system: HT29 colon
OVCAR-5 ovarian = system: OVCAR-5 ovarian
HS 578T breast = system: HS 578T breast
EKVX NSCLC = system: EKVX NSCLC
SK-MEL-5 melanoma = system: SK-MEL-5 melanoma
MDA-MB-231 breast = system: MDA-MB-231 breast
U251 CNS = system: U251 CNS
SK-MEL-2 melanoma = system: SK-MEL-2 melanoma
HOP-92 NSCLC = system: HOP-92 NSCLC
IGROV1 ovarian = system: IGROV1 ovarian
CCRF-CEM leukemia = system: CCRF-CEM leukemia
CAKI-1 renal = system: CAKI-1 renal
DU-145 prostate = system: DU-145 prostate
TK-10 renal = system: TK-10 renal
HCC-2998 colon = system: HCC-2998 colon
T-47D breast = system: T-47D breast
SK-MEL-28 melanoma = system: SK-MEL-28 melanoma
COLO 205 colon = system: COLO 205 colon
OVCAR-3 ovarian = system: OVCAR-3 ovarian
KM12 colon = system: KM12 colon
SF-539 CNS = system: SF-539 CNS
OVCAR-8 ovarian = system: OVCAR-8 ovarian
MDA-MB-435 = system: MDA-MB-435
HOP-62 NSCLC = system: HOP-62 NSCLC
M14 melanoma = system: M14 melanoma
SN12C renal = system: SN12C renal
K-562 leukemia = system: K-562 leukemia

C/C=C(\C)C(=O)N[C@H]1CC[C@]2(C)C3CC[C@@]4(C)C(CC[C@@H]4C(C)N(C)C)C3CCC2[C@H]1OC(C)=O (some centres undefined)
GI50 (OVCAR-4 ovarian): 2430 nM | TGI (OVCAR-4 ovarian): 14600 nM | GI50 (UO-31 renal): 1240 nM | TGI (UO-31 renal): 2540 nM | GI50 (SF-295 CNS): 1880 nM | TGI (SF-295 CNS): 4050 nM | GI50 (UACC-257 melanoma): 2120 nM | TGI (UACC-257 melanoma): 4160 nM | GI50 (MALME-3M melanoma): 1910 nM | TGI (MALME-3M melanoma): 3730 nM | GI50 (SNB-19 CNS): 2100 nM | TGI (SNB-19 CNS): 4130 nM | GI50 (SF-268 CNS): 1390 nM | TGI (SF-268 CNS): 2890 nM | GI50 (NCI-H522 lung): 2140 nM | TGI (NCI-H522 lung): 5240 nM | GI50 (HCT-15 colon): 762 nM | TGI (HCT-15 colon): 2400 nM | GI50 (MCF7 breast): 1270 nM | TGI (MCF7 breast): 2920 nM | GI50 (A498 renal): 1430 nM | TGI (A498 renal): 3510 nM | GI50 (ACHN renal): 1980 nM | TGI (ACHN renal): 4200 nM | GI50 (SK-OV-3 ovarian): 2060 nM | TGI (SK-OV-3 ovarian): 4270 nM | GI50 (SNB-75 CNS): 1650 nM | TGI (SNB-75 CNS): 3590 nM | GI50 (NCI/ADR-RES ovarian): 3110 nM | TGI (NCI/ADR-RES ovarian): 12000 nM | GI50 (NCI-H23 lung): 1910 nM | TGI (NCI-H23 lung): 5010 nM | GI50 (LOX IMVI melanoma): 1420 nM | TGI (LOX IMVI melanoma): 2780 nM | GI50 (BT-549 breast): 2070 nM | TGI (BT-549 breast): 5480 nM | GI50 (MOLT-4 leukemia): 1580 nM | TGI (MOLT-4 leukemia): 3910 nM | GI50 (RPMI-8226 leukemia): 1620 nM | TGI (RPMI-8226 leukemia): 4680 nM | GI50 (SW-620 colon): 1530 nM | TGI (SW-620 colon): 3050 nM | GI50 (NCI-H460 lung): 923 nM | TGI (NCI-H460 lung): 2260 nM | GI50 (RXF 393 renal): 1570 nM | TGI (RXF 393 renal): 3030 nM | GI50 (HL-60(TB) leukemia): 1880 nM | TGI (HL-60(TB) leukemia): 4520 nM | GI50 (A549 NSCLC): 2070 nM | TGI (A549 NSCLC): 4690 nM | GI50 (PC-3 prostate): 2050 nM | TGI (PC-3 prostate): 6590 nM | GI50 (NCI-H226 lung): 2380 nM | TGI (NCI-H226 lung): 7530 nM | GI50 (HCT-116 colon): 1040 nM | TGI (HCT-116 colon): 2420 nM | GI50 (786-0 renal): 1540 nM | TGI (786-0 renal): 2950 nM | GI50 (UACC-62 melanoma): 1950 nM | TGI (UACC-62 melanoma): 3740 nM | GI50 (HT29 colon): 362 nM | TGI (HT29 colon): 1340 nM | GI50 (OVCAR-5 ovarian): 2060 nM | TGI (OVCAR-5 ovarian): 5650 nM | GI50 (HS 578T breast): 1750 nM | TGI (HS 578T breast): 4700 nM | GI50 (EKVX NSCLC): 2060 nM | TGI (EKVX NSCLC): 8620 nM | GI50 (SK-MEL-5 melanoma): 1050 nM | TGI (SK-MEL-5 melanoma): 2300 nM | GI50 (MDA-MB-231 breast): 1910 nM | TGI (MDA-MB-231 breast): 4020 nM | GI50 (U251 CNS): 1550 nM | TGI (U251 CNS): 3560 nM | GI50 (SK-MEL-2 melanoma): 2290 nM | TGI (SK-MEL-2 melanoma): 4480 nM | GI50 (HOP-92 NSCLC): 1240 nM | TGI (HOP-92 NSCLC): 3470 nM | GI50 (IGROV1 ovarian): 2380 nM | TGI (IGROV1 ovarian): 8860 nM | GI50 (CCRF-CEM leukemia): 1970 nM | TGI (CCRF-CEM leukemia): 6190 nM | GI50 (CAKI-1 renal): 2110 nM | TGI (CAKI-1 renal): 4860 nM | GI50 (DU-145 prostate): 2850 nM | TGI (DU-145 prostate): 10900 nM | GI50 (TK-10 renal): 2160 nM | TGI (TK-10 renal): 4590 nM | GI50 (HCC-2998 colon): 1560 nM | TGI (HCC-2998 colon): 2970 nM | GI50 (T-47D breast): 1740 nM | TGI (T-47D breast): 5420 nM | GI50 (SK-MEL-28 melanoma): 1590 nM | TGI (SK-MEL-28 melanoma): 3240 nM | GI50 (COLO 205 colon): 1590 nM | TGI (COLO 205 colon): 3060 nM | GI50 (OVCAR-3 ovarian): 1590 nM | TGI (OVCAR-3 ovarian): 4340 nM | GI50 (KM12 colon): 2000 nM | TGI (KM12 colon): 5150 nM | GI50 (SF-539 CNS): 1160 nM | TGI (SF-539 CNS): 2530 nM | GI50 (OVCAR-8 ovarian): 3380 nM | TGI (OVCAR-8 ovarian): > 25800 nM | GI50 (MDA-MB-435): 1130 nM | TGI (MDA-MB-435): 2840 nM | GI50 (HOP-62 NSCLC): 1760 nM | TGI (HOP-62 NSCLC): 3460 nM | GI50 (M14 melanoma): 1850 nM | TGI (M14 melanoma): 3690 nM | GI50 (SN12C renal): 1700 nM | TGI (SN12C renal): 4260 nM | GI50 (K-562 leukemia): 524 nM | TGI (K-562 leukemia): 2170 nM
